# Tests used:
# Format in all cases: in vivo
# Sprague-Dawley rats [1] = test: Antiallodynic activity on Chung model (SNL, spinal nerve ligation); conditions: orally
# Text: Male Sprague-Dawley rats (100-130 g, Orient Bio, Korea) were habituated for 1 week before the experiment and allowed free access to food and water throughout the experimentation. Room temperature and humidity were maintained at 24±2 and 50±10%, respectively. The neuropathic surgery (SNL, Spinal nerve ligation) model was done as described in Kim and Chung (1992). Briefly, an animal was put under gaseous anesthesia with isoflurane. The left lumber spinal nerve L5 and L6 were isolated and tightly ligated with 6-0 silk thread. The wound muscle was closed with Catgut® chrom 3/0 thread and skin was closed with Dafilon 3/0 tread. Sham controls were prepared in the same manner with the spinal nerves exposed, but with no ligated L5 and L6 nerves. Preparation of the vehicle controls were identical to the group treated with compound, except for administration of vehicles without compound in the vehicle control group.
# Tactile sensitivity (Mechanical allodynia) was evaluated using von Frey monofilaments before and after treatment, and animals were included in the study only if the withdrawal threshold value was less than 4 g. One week after surgery, SNL-operated animals, sham-operated animals and vehicle control animals were tested for tactile sensitivity with von Frey monofilaments 3 trials in each animal. All Animals were placed in a stainless steel mash chamber and habituated for 30 min in the test cage. The tactile sensitivity for the ipsilateral hind paw was measured using the up-and-down method (Dixon, 1980) with seven von Frey monofilaments (0.4, 1, 2, 4, 6, 8, and 15 g) in 3 trials. The tactile sensitivity test was followed by Dixon's method (Dixon, 1980). The 50% paw withdrawal threshold for each paw was calculated using the following formula: [Xth] log=[vFr] log+ky where [vFr] is the force of the last von Frey used, k=0.2249 which is the average interval (in log units) between the von Frey monofilaments, and y is a value that depends upon the pattern of withdrawal responses (Dixon, 1980).
# All animals were fasted 18 h before the administration of the compounds. Antiallodynic effect of compounds were evaluated at the three dose, orally administrated in a volume of 5 ul/g, bw in a vehicle of 30% (v/v) PEG 400 or 20% (v/v) Tween 80. The test was performed at the peak time of efficacy after compound administration.
# The relative values compared to the sham group (% control) were calculated and shown in Table 3, which show an antiallodynic effect of the test compounds on SNL model in rats.
# Sprague-Dawley rats [2] = test: Antiallodynic activity on Complete Freund's Adjuvant (CFA)-induced inflammatory pain model; conditions: intraperitoneally
# Procedure: Male, Sprague-Dawley rats (210-250 g, Nara Bio, Korea) were habituated for 1 week before CFA injection and allowed free access to food and water throughout the experimentation. Room temperature and humidity were maintained at 24±2 and 50±10%, respectively.
# CFA-induced inflammatory pain was induced by the procedure of Nagakura et al. (2003) and Gregory P. et al. (2010) with minor modifications. CFA (sigma, USA) was injected in the right plantar with a 100 ul volume under gaseous anesthesia with isoflurane. Sham controls were injected with 100 ul of saline and preparation of the vehicles without compound in the vehicle control group. Tactile sensitivity (Mechanical allodynia) was evaluated using von Frey monofilaments before and after treatment, and the animals were included in the study only if the withdrawal threshold value was less than 4 g. One week after surgery, CFA-infused treatment animals (n=4-6), sham-operated animals (n=12), and vehicle control animals (n=17) were tested for tactile sensitivity with von Frey monofilaments 3 trials for each animal. All Animals were placed in a stainless steel mesh chamber and habituated for 30 min in the test box. The tactile sensitivity for ipsilateral hind paw was measured using the up-and-down method (Dixon, 1980) with seven von Frey monofilaments (0.4, 1, 2, 4, 6, 8, and 15 g) to 3 trials. Tactile sensitivity test was followed by Dixon's method (Dixon, 1980). The 50% paw withdrawal threshold for each paw was calculated using the following formula: [Xth] log=[vFr] log+ky where [vFr] is the force of the last von Frey used, k=0.2249 which is the average interval (in log units) between the von Frey monofilaments, and y is a value that depends upon the pattern of withdrawal responses (Dixon, 1980).
# Antiallodynic effect of compound was evaluated at the dose of 10-60 mg/kg (n=4-6), intraperitoneally administrated in a volume of 5 ul/g bw in a vehicle of 30% (v/v) PEG or 20% (v/v) Tween 80. The test was performed peak time of efficacy (0.5 or 1 hr) after compound administration.
# The relative values compared to the sham (% control) were calculated and shown in Table 4, which show an antiallodynic effect of Compound 1 on CFA-induced pain model in rats.
# SD rats = test: Anti-epilepsy activity, MES test, rat
# Procedure: (§1) In the MES test (Ref., G. Villetti et al. Neuropharmacology 40 (2001) 866-878), an electrical stimulus (mice: 50 mA, 60 Hz, 0.2 sec, and rats: 150 mA, 60 Hz, 0.2 sec in the test animal) supplied by an 11A Shocker (IITC Life Science Company) was delivered through corneal electrodes. All mice or rats assigned to any electroshock at peak time were treated with each test compound sample which was dissolved in 30% PEG 400 or 20% tween 80 prepared by saline solvent applied orally before the test. […] Three doses of the test sample were administered orally to 9-18 animals (3-6 mice per dose) for evaluating the respective doses at which 50% of the animals were protected from seizure (ED50). The ED50 value (median effective dose) was calculated by Litchfield and Wicoxon log-probit method which is a dose-response relationship. Experimental animals, male ICR mice and male SD rats, were purchased from OrientBio, Samtako, or Nara Biotech, Korea, and housed in cages (4-5 mice or 3 rats per cage) for 4-5 days. The range of mice body weight was between 19 and 25 grams and range of rats body weight was between 100 and 130 grams.
# Sprague-Dawley rats [3] = test: Lithium-pilocarpine induced epilepsy test, prevention; conditions: i.p.
# Procedure: Male Sprague-Dawley rats (purchased from Orient Bio Inc. Korea) of body weight 175-200 grams were used for these studies and 3 rats per cage were housed for 4-5 days. On the day prior to SE, rats received 127 mg/kg lithium chloride (Sigma, St. Louis, Mo., U.S.A.) intraperitoneally (i.p.). Approximately 18-20 h following this treatment, rats were given an i.p. injection of CD97 dose (30-43 mg/kg) pilocarpine (Sigma). An i.p. injection of 2 mg/kg methyl-scopolamine (Sigma) was administered 30 min prior to pilocarpine to block the effects of the muscarinic agonist on peripheral cholinergic receptors. Test drugs were dissolved in 30% PEG 400 or 20% tween80 (Sigma).
# The drugs were administered intraperitoneally (i.p.) in a volume of 2 ul/g body weight. Pharmacological effects of all of the test materials were evaluated to compare test groups (n=6) with a control group (n=6). Control group was administered vehicle only. The efficacy was measured 0.5, 1, 2, or 4 hours after the administration of the test material. The time point that the most animals were protected was defined as peak time and the ED50 was determined at peak time. The animals were then transferred to observation cages and observed continuously for 90 min. Seizure was elicited in approximately 95% of the control group. Protection was defined as complete absence of seizure grade 3-5 (Racine scale; Racine, 1972) over the 90-min observation period. The effective dose of the compound necessary to protect 50% of the animals against seizures compared to controls (i.e. ED50) was determined by a curve fitting program (Excel 2007, Microsoft).
# ICR mice [4] = test: Anti-epilepsy activity, MES test, mouse; conditions: for responders at 100 mg/kg: po, read-out: MES test (po) efficacy %
# Procedure: as §1
# ICR mice [5] = test: Chemical induced seizure model (PIC, picrotoxin)
# Procedure: Picrotoxin (PIC) were used to induce the behavioral seizures in the experiments. Male ICR mice (purchased from Orient Bio Inc. Korea) of body weight 19-26 g (mice) were used for these studies. The test materials were administered intraperitoneal (ip) route in a volume of 10 ul/g (mice) weight in mice, respectively. Pharmacological effects of the test materials were evaluated to compared test groups (n=6) with a control group (n=6). Control group was administrated vehicle, only. The peak time was determined by administration of test material's random dose for 0.5, 1, 2, 4 hour. The time that the most protect was defined as a peak time and ED50 was determined by other dose administration at the peak time. Chemical (PIC) was dissolved in 0.9% saline and administered subcutaneously (s.c.) at its CD97 (convulsive dose 97%), the dose of Chemical (PIC) that produced clonic seizures in 97% into a loose fold of skin in the midline of the neck in a volume of 10 ul/g (mice) body weight. The animals were then transferred to observation cages and observed continuously for 45 min (PIC). Clonic seizure was elicited in approximately 97% of control group. Protection was defined as a complete absence of clonic seizure over the 45-min observation period. The effective dose of compound necessary to protect against generalized convulsive seizures to 50% of controls (i.e. ED50) was determined by log probit analysis using SPSS software program (SPSS Inc.). (Reference; White H. S., J. H. Woodhead, K. S. Wilcox, J. P. Stables, H. J. Kupferberg, and H. H. Wolf. General Principles; Discovery and Preclinical De-velopment of Antiepileptic Drugs. In: R. H. Levy, R. H. Mattson, B. S. Meldrum, and E. Perucca, eds. Antiepileptic Drugs, 5th Ed. Lippincott Williams & Wilkins, Philadelphia 2002: pp. 36-48.) The obtained results are shown in following Table 10.
SMILES,"ED50 (Sprague-Dawley rats [1]; Rattus norvegicus, po, at peak time) [mg/kg]",SNL Peak Time (Sprague-Dawley rats [1]) [h],"ED50 (Sprague-Dawley rats [2]; Rattus norvegicus, ip, at peak time) [mg/kg]",CFA-induced pain model Peak Time (Sprague-Dawley rats [2]) [h],MES test (po) Peak time (SD rats) [h],MES test (po) efficacy % (SD rats; 20 mg/kg) [%],Lithium pilocarpine model (pre) peak time (Sprague-Dawley rats [3]) [h],Lithium pilocarpine model (pre) efficacy % (Sprague-Dawley rats [3]; 50 mg/kg) [%],MES test (po) Peak time (ICR mice [4]) [h],responders at 100 mg/kg (ICR mice [4]) [%],Lithium pilocarpine model (pre) efficacy % (Sprague-Dawley rats [3]; 100 mg/kg) [%],PIC(ip) Peak Time (ICR mice [5]) [h],PIC(ip) efficacy % (ICR mice [5]; 30 mg/kg)
"COCO[C@@H](c1ccccc1Cl)[C@H](C)OS(N)(=O)=O [Example 69, (1S, 2S)-1-(2-chlorophenyl)-1-(methoxymethoxy)propan-2-yl sulfamate]",48.2,1,29.5,0.5,1,16.6,1,33.3,–,–,–,–,–
"C[C@@H](OS(N)(=O)=O)[C@H](O)c1cccc(Cl)c1Cl [Example 10, (1R, 2R)-1-(2,3-dichlorophenyl)-1-hydroxypropan-2-yl sulfamate]",–,–,–,–,–,–,1,–,1,83.3,66.6,–,–
C[C@@H](OS(N)(=O)=O)[C@H](OS(N)(=O)=O)c1ccccc1Cl [Example 85],–,–,–,–,–,–,–,–,2,16.6,–,4,30(33.3%)
